We go through six molecules from ChEMBL document CHEMBL1201862, “PubChem BioAssay data set” (2004).

In test [1] the target is T1, Eukaryotic translation initiation factor 2-alpha kinase 3 (Homo sapiens, UniProt Q9NZJ5). As to the kind of experiment: Dose response cell-based high-throughput screening assay to measure PERK inhibition. [Related pubchem assays: 1416 ]. In kind it is functional.
The target in test [2] is T1, Eukaryotic translation initiation factor 2-alpha kinase 3. The test is described as follows: Counterscreen assay for PERK inhibitors: Dose response cell-based high throughput screening assay to measure inhibition of PERK at 6 hours. [Related pubchem assays: 1522, 1416 ]. Type of test: functional. For orientation: A counterscreen serves to expose hits that act by an unwanted route or on another target.

Test [3] can be described thus: HEK-293T viability loss after treatment – luminescence, T-cell screen hits, cytotoxicity control for TCR NF-kB inhibitor project, dose response (AID 489026).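 Further: cells exposed to compound about 14 hours before the viability readout.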 In kind it is functional, cell-based.
A short description of test [4]: alpha-synuclein stem-loop translation blockers – luminescence, H4 neuroglioblastoma cells, dose confirmation, confirmation (AID 2454).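 Further: H4 neuroglioblastoma cells carrying an alpha-synuclein 5'UTR luciferase reporter; potency for inhibition of the luciferase signal.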 In kind it is functional, cell-based.
Test [5] is described as follows: luciferase reporter signal suppression in cells – H4 neuroglioma cells, luminescence, dose response (AID 1990). In kind it is functional, cell-based. For orientation: In a reporter assay the amount or activity of a reporter protein is the signal.
Test [6] is described as follows: alpha-synuclein stem-loop luciferase translation blockers – H4 neuroglioma cells, luminescence, confirmation (AID 1988). Type of test: functional, cell-based.
A short description of another test: cells. In kind it is functional, cell-based.
Test [7] can be described thus: luciferase reporter signal reduction – luminescence, H4-C neuroglioblastoma cells, dose response (AID 2458).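 Further: H4 neuroglioblastoma cells stably carrying a luciferase reporter gene fusion.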 Type of test: functional, cell-based.
The target of test [8] is T2, Heat shock 70 kDa protein 1A (Homo sapiens, UniProt P0DMV8). The test is described as follows: small-molecule inhibition of Hsp70 – biochemical, TR-FRET (AID 786). On the technique in general: Time-resolved FRET reads energy transfer from a long-lived donor to a nearby acceptor.
T2 sequence (P0DMV8 whole entry): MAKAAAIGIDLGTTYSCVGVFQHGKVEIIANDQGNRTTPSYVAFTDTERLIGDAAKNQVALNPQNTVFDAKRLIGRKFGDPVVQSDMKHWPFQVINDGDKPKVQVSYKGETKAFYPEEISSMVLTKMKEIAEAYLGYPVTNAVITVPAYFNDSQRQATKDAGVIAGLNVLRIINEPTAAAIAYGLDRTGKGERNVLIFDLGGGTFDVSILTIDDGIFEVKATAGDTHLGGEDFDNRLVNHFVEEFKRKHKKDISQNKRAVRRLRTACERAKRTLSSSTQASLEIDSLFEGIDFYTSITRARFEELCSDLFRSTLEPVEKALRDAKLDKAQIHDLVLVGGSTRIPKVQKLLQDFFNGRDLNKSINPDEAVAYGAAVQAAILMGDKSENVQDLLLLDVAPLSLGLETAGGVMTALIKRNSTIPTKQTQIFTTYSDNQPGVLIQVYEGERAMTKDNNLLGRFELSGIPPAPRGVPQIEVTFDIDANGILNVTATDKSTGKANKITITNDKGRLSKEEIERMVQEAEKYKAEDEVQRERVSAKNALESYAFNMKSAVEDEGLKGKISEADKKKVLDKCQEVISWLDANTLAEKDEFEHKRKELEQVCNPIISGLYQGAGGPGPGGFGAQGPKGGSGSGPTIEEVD
A short description of test [9]: viability loss in HepG2 liver cells – cell-based, ATP luminescence, cherry-pick, set 6, cytotoxicity control, dose response (AID 1053125). Type of test: functional.
Test [10] has as its target T3, Zinc finger protein mex-5 (Caenorhabditis elegans, UniProt Q9XUB2).
T3 sequence (Q9XUB2 whole entry): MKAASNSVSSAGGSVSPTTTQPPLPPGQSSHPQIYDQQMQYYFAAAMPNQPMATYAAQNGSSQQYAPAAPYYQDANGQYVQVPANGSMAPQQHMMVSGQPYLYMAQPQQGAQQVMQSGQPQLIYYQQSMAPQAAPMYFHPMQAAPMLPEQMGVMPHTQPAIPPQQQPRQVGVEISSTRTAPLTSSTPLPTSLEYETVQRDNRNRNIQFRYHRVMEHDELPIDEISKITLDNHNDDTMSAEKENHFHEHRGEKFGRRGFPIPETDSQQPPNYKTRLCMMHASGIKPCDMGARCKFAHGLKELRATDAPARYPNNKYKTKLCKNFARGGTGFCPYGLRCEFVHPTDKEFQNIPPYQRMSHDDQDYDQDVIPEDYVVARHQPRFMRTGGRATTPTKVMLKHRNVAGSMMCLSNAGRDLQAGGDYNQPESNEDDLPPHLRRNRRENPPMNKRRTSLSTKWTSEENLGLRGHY
As to the kind of experiment: potency of MEX-5 RNA-binding blockers – biochemical, C. elegans, fluorescence polarization, dose response (AID 1960).

The target of test [11] is T2, Heat shock 70 kDa protein 1A. As to the kind of experiment: small molecules displacing fluorescent ligand from Hsp70 – biochemical, fluorescence polarization, primary screen (AID 583).
The target in test [12] is T4, Female germline-specific tumor suppressor gld-1 (Caenorhabditis elegans, UniProt Q17339).
T4 sequence (Q17339 whole entry): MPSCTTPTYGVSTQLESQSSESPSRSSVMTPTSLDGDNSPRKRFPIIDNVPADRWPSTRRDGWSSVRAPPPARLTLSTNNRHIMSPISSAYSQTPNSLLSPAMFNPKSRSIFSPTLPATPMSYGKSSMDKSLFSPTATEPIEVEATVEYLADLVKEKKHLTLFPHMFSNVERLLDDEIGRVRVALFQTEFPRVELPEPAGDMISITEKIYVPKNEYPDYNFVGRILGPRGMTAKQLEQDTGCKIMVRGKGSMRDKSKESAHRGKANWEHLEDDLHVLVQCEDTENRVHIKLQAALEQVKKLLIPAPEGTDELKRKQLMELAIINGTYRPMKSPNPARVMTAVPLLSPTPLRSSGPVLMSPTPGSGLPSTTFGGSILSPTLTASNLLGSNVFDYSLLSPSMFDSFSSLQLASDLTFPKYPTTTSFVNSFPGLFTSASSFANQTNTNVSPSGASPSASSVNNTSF
The test is described as follows: blockers of GLD-1/TGE RNA complex formation – biochemical, fluorescence polarization, C. elegans, dose response (AID 2802).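 Further: fluorescence polarization of labeled TGE RNA bound by purified gld-1 protein.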

The target of a further test is T5, Protein Rev (Human immunodeficiency virus type 1 group M subtype B (isolate HXB2)(HIV-1), UniProt P04618).
T5 sequence (P04618 whole entry): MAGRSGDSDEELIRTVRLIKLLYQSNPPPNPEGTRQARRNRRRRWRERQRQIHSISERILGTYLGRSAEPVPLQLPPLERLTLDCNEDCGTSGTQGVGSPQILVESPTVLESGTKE
The test is described as follows: blockers of HIV Rev/RRE RNA complex – biochemical, fluorescence polarization, HIV-1, dose response (AID 434976). On the set-up: species or system Human immunodeficiency virus 1.

Test [13] has as its target T6, Polyadenylate-binding protein 1 (Homo sapiens, UniProt P11940). As to the kind of experiment: MLLE domain peptide-binding blockers, IC50 – biochemical, fluorescence polarization, FITC-PAM2 peptide, dose response (AID 602259). Type of test: functional. Conditions: read-out: IC50_Mean.
In test [14] the target is T6, Polyadenylate-binding protein 1. The test is described as follows: MLLE binding blockers, Cy5 peptide tracer – biochemical, fluorescence polarization, Cy5-PAM2 peptide, secondary, miRNA deadenylation inhibitor project, dose response (AID 602260). Type of test: functional. Conditions: read-out: IC50_Mean.
In test [15] the target is T7, RNA-binding protein pos-1 (Caenorhabditis elegans, UniProt G5EF15).
T7 sequence (G5EF15 whole entry): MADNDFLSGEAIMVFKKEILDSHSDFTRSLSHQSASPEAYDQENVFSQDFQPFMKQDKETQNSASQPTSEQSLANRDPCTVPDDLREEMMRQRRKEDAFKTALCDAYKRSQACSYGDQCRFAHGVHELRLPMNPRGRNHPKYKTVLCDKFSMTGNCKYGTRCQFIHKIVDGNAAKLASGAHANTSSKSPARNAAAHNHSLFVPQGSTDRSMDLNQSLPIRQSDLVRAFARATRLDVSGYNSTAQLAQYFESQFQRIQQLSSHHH
The test is described as follows: disruptors of C. elegans POS-1 RNA interaction – biochemical, fluorescence polarization, dose response (AID 1964).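 Further: purified POS-1 fused to maltose binding protein made in E. coli; potency of compounds blocking POS-1 binding to fluorescent RNA.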

The target of test [16] is T8, Alkaline phosphatase, tissue-nonspecific isozyme (Homo sapiens, UniProt P05186).
T8 sequence (P05186 whole entry): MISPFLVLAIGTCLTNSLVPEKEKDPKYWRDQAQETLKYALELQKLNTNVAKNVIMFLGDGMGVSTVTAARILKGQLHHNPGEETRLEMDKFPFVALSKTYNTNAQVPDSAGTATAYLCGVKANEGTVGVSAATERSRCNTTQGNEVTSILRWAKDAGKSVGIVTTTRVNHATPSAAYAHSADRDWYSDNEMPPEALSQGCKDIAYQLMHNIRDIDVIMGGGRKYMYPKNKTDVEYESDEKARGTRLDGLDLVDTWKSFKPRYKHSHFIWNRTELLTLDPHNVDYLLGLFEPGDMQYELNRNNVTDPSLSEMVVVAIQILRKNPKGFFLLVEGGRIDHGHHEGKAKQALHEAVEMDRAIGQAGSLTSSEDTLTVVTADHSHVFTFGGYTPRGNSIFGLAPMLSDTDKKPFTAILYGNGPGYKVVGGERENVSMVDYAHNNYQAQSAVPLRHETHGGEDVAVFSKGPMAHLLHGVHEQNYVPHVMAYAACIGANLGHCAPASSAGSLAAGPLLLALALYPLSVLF

Test [17] concerns the target G-protein coupled receptor 35 (Homo sapiens, UniProt Q9HC97). As to the kind of experiment: inhibition of zaprinast-stimulated GPR35 beta-arrestin translocation – imaging, U2OS, beta-arrestin-GFP, zaprinast agonist, primary screen (AID 2058).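 Further: antagonist potency meaning inhibition of agonist-induced arrestin redistribution.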 In kind it is functional.
Test [18] is described as follows: viability of HCT116 lacking mutant beta-catenin – cell-based, human colon tumor, dose response (AID 1045).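 Further: HCT116 colon tumor cells with beta catenin knocked out; cells exposed to compound for 60 hours.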 Type of test: functional.
The next test deals with INS1. The test is described as follows: INS-1E survival protection against cytokine death – cell-based, luminescence, retest, dose response (AID 449756).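 Further: cell death triggered by IL-1 beta plus TNF-alpha plus IFN-gamma mixture; protective hits raise ATP signal compared with cytokine alone wells.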 In kind it is functional. The following applies: Rattus norvegicus.
A short description of test [19]: viability of PTEN-deleted HCT116 cells – cell-based, HCT116 PTEN knockout, dose response (AID 1047).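 Further: HCT116 colon tumor cells with PTEN knocked out; cells exposed to compound for 60 hours before readout; potency for loss of cell viability measured by luminescence.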 In kind it is functional.
A short description of test [20]: Trypanosoma cruzi growth suppression in host cells – NIH3T3 host cells, beta-gal luminescence, confirmation (AID 2044).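 Further: intracellular parasites grown in NIH/3T3 mouse fibroblasts as host cells; luminescent beta-galactosidase reporter signal from transgenic T. cruzi replicating inside host cells; inhibitors lower the luminescence signal.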 In kind it is functional, cell-based.
The target in test [21] is NACHT, LRR and PYD domains-containing protein 3 (Homo sapiens, UniProt Q96P20). The test is described as follows: NALP3 inhibitors in yeast, dose response, luminescent (AID 488799). In kind it is functional.
Chain of NACHT, LRR and PYD domains-containing protein 3 (Q96P20 whole entry, the tested form may be a part): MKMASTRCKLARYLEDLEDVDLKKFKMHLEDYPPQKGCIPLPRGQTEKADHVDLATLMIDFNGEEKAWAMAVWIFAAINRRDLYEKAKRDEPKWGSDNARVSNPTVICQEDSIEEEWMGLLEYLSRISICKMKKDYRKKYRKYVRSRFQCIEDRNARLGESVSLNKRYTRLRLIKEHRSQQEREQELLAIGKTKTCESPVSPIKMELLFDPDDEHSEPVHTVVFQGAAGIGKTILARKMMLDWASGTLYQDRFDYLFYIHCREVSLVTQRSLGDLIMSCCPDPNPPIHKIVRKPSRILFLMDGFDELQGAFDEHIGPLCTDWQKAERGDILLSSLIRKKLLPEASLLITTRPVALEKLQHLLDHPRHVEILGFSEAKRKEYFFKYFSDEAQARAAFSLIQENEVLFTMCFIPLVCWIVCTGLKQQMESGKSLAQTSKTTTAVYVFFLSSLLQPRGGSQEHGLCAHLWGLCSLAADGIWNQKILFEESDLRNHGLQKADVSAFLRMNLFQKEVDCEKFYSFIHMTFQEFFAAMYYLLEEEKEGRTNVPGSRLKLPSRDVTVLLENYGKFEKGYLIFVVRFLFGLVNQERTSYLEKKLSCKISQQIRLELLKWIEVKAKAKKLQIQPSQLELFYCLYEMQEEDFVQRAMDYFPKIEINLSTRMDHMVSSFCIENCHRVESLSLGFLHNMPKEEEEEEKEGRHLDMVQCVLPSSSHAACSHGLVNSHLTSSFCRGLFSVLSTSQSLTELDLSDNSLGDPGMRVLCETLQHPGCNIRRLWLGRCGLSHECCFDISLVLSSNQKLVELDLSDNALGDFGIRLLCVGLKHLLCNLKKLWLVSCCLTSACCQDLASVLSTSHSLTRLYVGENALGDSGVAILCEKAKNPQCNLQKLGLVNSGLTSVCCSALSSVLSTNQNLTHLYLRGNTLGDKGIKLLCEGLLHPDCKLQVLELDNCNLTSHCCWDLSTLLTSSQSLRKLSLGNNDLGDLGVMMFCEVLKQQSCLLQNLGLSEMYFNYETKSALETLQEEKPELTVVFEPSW

Molecules are shown by their SMILES. Calls of active or inactive are those of the source.

T1 sequence (Q9NZJ5 whole entry): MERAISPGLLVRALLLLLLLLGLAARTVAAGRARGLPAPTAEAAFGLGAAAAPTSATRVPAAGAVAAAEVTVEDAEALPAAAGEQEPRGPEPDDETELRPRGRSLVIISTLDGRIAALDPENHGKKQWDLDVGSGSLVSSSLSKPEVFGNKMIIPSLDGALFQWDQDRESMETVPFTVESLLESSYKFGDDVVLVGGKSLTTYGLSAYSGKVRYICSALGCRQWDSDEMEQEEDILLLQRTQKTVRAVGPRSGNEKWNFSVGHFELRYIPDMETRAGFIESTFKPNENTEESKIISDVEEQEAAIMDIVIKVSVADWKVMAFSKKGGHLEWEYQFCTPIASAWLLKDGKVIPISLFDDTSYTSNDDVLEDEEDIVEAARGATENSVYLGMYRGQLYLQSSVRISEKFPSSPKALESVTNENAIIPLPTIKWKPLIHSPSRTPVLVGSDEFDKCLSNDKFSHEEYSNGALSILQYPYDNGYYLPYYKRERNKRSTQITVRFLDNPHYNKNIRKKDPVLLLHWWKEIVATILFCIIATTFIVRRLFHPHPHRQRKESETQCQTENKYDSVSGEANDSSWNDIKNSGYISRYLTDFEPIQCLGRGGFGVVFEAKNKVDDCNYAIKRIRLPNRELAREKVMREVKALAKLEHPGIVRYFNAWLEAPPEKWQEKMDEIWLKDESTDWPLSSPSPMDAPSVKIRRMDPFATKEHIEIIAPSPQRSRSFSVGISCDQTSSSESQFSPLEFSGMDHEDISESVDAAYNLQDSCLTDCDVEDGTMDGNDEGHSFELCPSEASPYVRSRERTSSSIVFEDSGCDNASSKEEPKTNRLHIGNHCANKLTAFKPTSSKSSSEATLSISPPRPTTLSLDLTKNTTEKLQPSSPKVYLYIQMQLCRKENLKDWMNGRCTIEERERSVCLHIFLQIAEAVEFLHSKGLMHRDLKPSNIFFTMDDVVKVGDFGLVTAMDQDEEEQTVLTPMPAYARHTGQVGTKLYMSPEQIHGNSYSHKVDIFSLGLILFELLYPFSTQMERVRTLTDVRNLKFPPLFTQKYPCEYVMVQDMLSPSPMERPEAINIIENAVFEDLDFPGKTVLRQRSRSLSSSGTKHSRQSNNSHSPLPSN
T6 sequence (P11940 whole entry, the tested form may be a part): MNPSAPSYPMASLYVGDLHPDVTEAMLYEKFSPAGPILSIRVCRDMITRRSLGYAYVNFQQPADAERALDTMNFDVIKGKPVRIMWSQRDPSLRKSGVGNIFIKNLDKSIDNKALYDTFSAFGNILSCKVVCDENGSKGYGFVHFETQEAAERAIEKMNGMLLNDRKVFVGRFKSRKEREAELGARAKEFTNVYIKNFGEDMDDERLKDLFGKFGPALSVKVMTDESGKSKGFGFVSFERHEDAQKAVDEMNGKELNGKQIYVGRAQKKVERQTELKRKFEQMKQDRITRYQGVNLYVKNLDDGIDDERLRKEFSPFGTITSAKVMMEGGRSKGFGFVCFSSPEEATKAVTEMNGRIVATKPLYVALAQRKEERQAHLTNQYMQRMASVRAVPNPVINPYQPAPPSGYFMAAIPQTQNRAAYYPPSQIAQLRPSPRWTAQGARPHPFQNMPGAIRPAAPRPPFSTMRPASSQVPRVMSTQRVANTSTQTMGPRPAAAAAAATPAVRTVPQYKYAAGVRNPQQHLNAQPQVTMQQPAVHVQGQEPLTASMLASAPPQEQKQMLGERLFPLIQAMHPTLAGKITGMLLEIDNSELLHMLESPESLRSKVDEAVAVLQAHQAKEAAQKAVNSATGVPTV
Chain of G-protein coupled receptor 35 (Q9HC97 whole entry): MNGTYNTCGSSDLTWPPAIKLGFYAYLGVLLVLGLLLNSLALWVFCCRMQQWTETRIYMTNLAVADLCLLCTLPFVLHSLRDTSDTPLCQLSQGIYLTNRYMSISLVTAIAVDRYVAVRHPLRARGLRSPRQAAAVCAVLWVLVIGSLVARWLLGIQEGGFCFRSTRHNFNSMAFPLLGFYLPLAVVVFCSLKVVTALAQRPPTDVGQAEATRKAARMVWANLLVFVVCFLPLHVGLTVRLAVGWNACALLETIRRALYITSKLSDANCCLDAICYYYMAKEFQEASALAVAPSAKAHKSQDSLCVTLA

As to `O/N=C/c1ccc2cccc(O)c2n1`, the EC50 in test [1] and in test [2] was > 55.7 µM (not active) throughout.

Regarding `CCOC(=O)C(C)Oc1cccc2c(=O)n(CC(=O)NCc3ccc(F)cc3)ccc12` (centres undefined), the IC50 in test [3] was > 80 µM (inactive). Also, the EC50 in test [4] was > 12 µM (inconclusive); in [5], 0.3 µM (active); in test [6], < 0.1 µM (active); in “cells” it was 1.67 µM (active); in [7], > 12 µM (not active).

In the case of `Nc1cccc2c1C(=O)N(c1ccccc1)C2=O`, the IC50 in [8] was > 100 µM (not active); in [11], 12.4 µM (active); in test [12], 2.9 µM (active); at Protein Rev it was 7.86 µM (active); in test [13], 24 µM (inactive); in test [14], > 66 µM (inactive). Besides, the AC50 in test [9] was > 52 µM (inactive). For the same molecule, the concentration for a half-maximal effect (EC50) in test [10] is 10.5 µM (active); in test [15] it was 17 µM (active).

Regarding `CCn1c(/C=N/Nc2ccc(C(=O)O)cc2)nc2ccccc21`, in test [16], the EC50 is 88.3 µM (not active).

In the case of `COc1ccc(/N=C2\S/C(=C\c3ccc(N4CCOCC4)o3)C(=O)N2CCc2c[nH]c3ccccc23)cc1`, in [17], the IC50 was 1.49 µM (active). Also, the EC50 in test [18] was 7.54 µM (active); in test [19] it was 10 µM (active); in [20] it was 0.335 µM (active). In addition, the AC50 with INS1 was 7.09 µM (active).

Take `Cc1cccc(C(=O)ONC(=N)Cc2cccc3ccccc23)c1`: in test [21], the IC50 is 1.62 µM (active).

As usually defined, the EC50 is the midpoint of the concentration-response curve. As a reminder, the AC50 is the midpoint of the concentration-response curve, whichever way the signal moves.
